From US7560529B2, “Method for producing catalytic antibodies (variants), antigens for immunization and nucleotide sequence” (FDS Pharma, priority 2001, dated 2009)

Test system: CD4+ T-lymphocytes from SJL mice
Test: Flow cytometry of surface marker expression in T-lymphocytes of immunized SJL mice
Format: in vivo
Excerpt: To characterize the features of immune response development upon immunization with a fusion protein comprising the neuroantigen MBP, a comparative analysis of specific surface markers expression in T-lymphocytes from SJL mice that were not immunized (control), from mice immunized with the synthetic peptide MBP89-104, recombinant fusion protein gp120I-IIImbp (the product of Construct No. 15 (see FIG. 3) at two different doses and recombinant protein gp120I-III (the product of Construct No. 13 (see FIG. 3) was carried out (FIG. 11). All the immunizations were performed in parallel under identical conditions as described above. Twenty one days after the beginning of an experiment, CD4+ T-lymphocytes isolated from two mice of each group were analyzed by flow cytometry. A specific feature of SJL mice was initially low CD8+ T-cell counts.

VVHFFKNIVTPRTPPPS [peptide MBP, encephalitogenic 89-104 peptide of the myelin basic protein, reference compound]
T-cell immune response by day 21 after immunization (surface markers CD11a, CD44, CD45RB, CD62-L): fully developed T-cell immune response
